From patent US6379959B1, “Metalocarboxypeptidase inhibitors and derived molecules used as antitumor agents” (Universitat Autonoma de Barcelona, priority 1996, dated 2002)
Positions of bridges follow the written chain, without caps; N, C: chain ends. No end group written: not given here.

Experiments:
[1] = tested on: Int-2 murine insulinoma cell line; test: Proliferation of Int-2 cells pretreated with PCI; format: cell-based; details: pretreatment 50 μg/mL of PCI, 7, 20 and 30 days; treatments 7, 8 and 5 days
Description: The analysed cell lines were Capan-1, already described, and Int-2. This latter being a murine insulinoma cell line derived from transgenic mice developed in the lab of Dr. M. Frazier. The medium employed for the growth of both lines was DMEM+10%FBS and the culture techniques that were used were identical to those previously described. In the case of the Int-2 cell line, only proliferation tests were performed. They were carried out in the same way as that described in the case of Capan-1, with the unique difference that the number of cells that was put per well in the plate of 96 was 500 instead of 2,000.

[2] = tested on: tumors of human pancreatic adenocarcinoma cell line Capan-1; test: Tests with athymic mice, subcutaneous Capan-1 tumors; format: in vivo, nude mice; design: key to SGD class: SGD < 1 expressed as −; >expressed +; <3 expressed as +++; details: for Duplication time (days) of the tumor: daily 100 μL into the tumor, 32 days (control 4.32)
Description: With the aim of evaluating the sensitivity to PCI of induced human tumors, studies were carried out with nude mice. Human pancreatic adenocarcinoma cells Capan-1 were inoculated in these mice subcutaneously and once the tumor reached a minimum size of 3×3 mm2, a daily treatment begun, also subcutaneous, with different doses of PCI for 32 days. The following materials were employed:
In order to determine whether the PCI had any effect on tumoral growth, the growth of subcutaneous tumors induced in nude mice, whether treated with PCI or not, was followed over a period of time. The detailed protocol was the following:
1. 10^7 Capan-1 cells were dissolved in 100 μL of DMEM and injected subcutaneously to the mice. 19 mice were inoculated and divided into 4 groups.
Control group: consisting of 5 mice. They were treated with PBS.
Group 1: also consisting of 5 mice. They were treated with 0.11 mg/mL of PCI dissolved in PBS.
Group 2: consisting of 5 mice to which a treatment with a dose of 0.6 mg/mL of PCI was applied.
Group 3: consisting of 4 mice for which, in this case, the dose of PCI was 1.2 mg/mL of PCI.
2. 12 days after the inoculation of the cells, the daily treatment with PBS or PCI by direct injection in the tumor of 100 μL of such solutions was started. At this moment, the tumors were palpable and measured, at least, 2 mm of diameter.
3. During the treatment, the size of the tumor was determined every two days using a Vernier calibrator which made it possible to measure the size of the tumor in all its dimensions. The volume of the tumor was determined by means of the following formula: [formula]
As the volumes of the tumors became known, the relative growth of such tumors was calculated every 7 days using the following formula: [formula]
Once the treatment had finished, the duplication time of the tumor (td) was calculated for each treatment with the following formula: [formula]
where d corresponds to the days of treatment, Vt to the volume of the tumor at the end of the treatment and V0 to the volume at the beginning of the treatment.

[3] = tested on: human pancreatic adenocarcinoma cell line Capan-1; test: Apoptosis by DAPI labeling and fluorescence microscope; format: cell-based
Description: The studies of possible induction of apoptosis by the PCI were done with the human pancreatic adenocarcinoma cell line Capan-1. The detailed procedure that was employed is as follows:
1. 5×10^5 cells were seed in the chambers/slides and were cultured for 3 o 4 days (until the moment in which, through microscope observation, they presented 75% of confluence). The cells were cultured in DMEM+10% FBS.
2. […] A positive control was added, cysplatinum, at a concentration of 10 μg/mL (a drug which induces apoptosis in various tumor cell lines, Borner, M. M., et al. (1995) Cancer Res., 55: 2122-2128. The incubation period was 24 h.
3. The medium was removed after incubation and the chamber was washed with 2 mL of PBS.
5. Cells were fixed with 2 mL of 2% formaldehyde for 20 min at 4° C.
6. The plates were washed again with 2 mL of PBS for 5 min at room temperature.
7. Cell membranes were permeabilized with 0.25% Triton ×100 in PBS for 5 min at 4° C.
8. Washed with PBS for 5 min at room temperature.
9. The cells were labeled with DAPI at a final concentration of 2 μg/mL for 50 min in darkness at room temperature.
10. The preparation was fitted with the fluoroprep medium and it was examined through the fluorescence microscope.
% apoptosis=(number of apoptotic cells/total number of cells)×100

[4] = Dose 0.55 (mg(kg/day), s.c., days 0-32)
[5] = Dose 3 (mg(kg/day), s.c., days 0-32)
[6] = Dose 6 (mg(kg/day), s.c., days 0-32)

Substance: PCI: potato carboxypeptidase inhibitor, isoform IIa, obtained by recombinant DNA techniques in E. coli (SEQ ID NO.2) (EQHADPICNKPCKTHDDCSGAWFCQACWNSARTCGPYVG; disulfide 12-27, 18-34, 8-24)
- growth of pretreated cells cultured later in the absence of the protein compared to non-pretreated cells [1]: approximately half
- Duplication time (days) of the tumor ([2]; 0.11 mg/mL PCI): 9.06 days
- Duplication time (days) of the tumor ([2]; 0.6 mg/mL PCI): 19.49 days
- Duplication time (days) of the tumor ([2]; 1.2 mg/mL PCI): 5.78 days
- Optimal T/C % [2, 4]: 39.79%
- SGD (Td treated- Td control/Td control) [2, 4]: 1.09
- SGD class [2, 4]: +
- Optimal T/C % [2, 5]: 21.36%
- SGD (Td treated- Td control/Td control) [2, 5]: 3.51
- SGD class [2, 5]: +++ (<3 expressed as +++)
- Optimal T/C % [2, 6]: 69.4%
- SGD (Td treated- Td control/Td control) [2, 6]: 0.34
- SGD class [2, 6]: − (SGD < 1 expressed as −)
- days of treatment until tumors start bleeding in the process of injection ([2]; animals treated with PCI (control three days)): 8 days
- activity in the reduction of the growth of the tumors ([2]; dose of 0.11 mg/mL): moderate activity (T/C < 50% moderate activity)
- duplication time of the tumor relative to the control tumors ([2]; dose of 0.11 mg/mL of PCI): twice as high
- activity in the reduction of the growth of the tumors ([2]; dose of PCI of 0.6 mg/mL): significant activity (T/C < 25%, significant activity)
- duplication time of the tumor relative to the control group ([2]; doses of 0.6 mg/mL): 4.5 times
- % Apoptosis ([3]; 0,1 mg/mL PCI, 24 h (negative control 0.08)): 0.11%
- % Apoptosis ([3]; 10 mg/mL PCI, 24 h): 0.095%
- % Apoptosis ([3]; 50 mg/mL PCI, 24 h): 0.41%
- % Apoptosis ([3]; 200 mg/mL PCI, 24 h): 0.038%
- index of apoptosis relative to the control ([3]; PCI 50 μg/mL, 24 h): 5 times
